Data: patent publication US20220071233A1, “IN VITRO INSECT MUSCLE AS A NUTRITION SOURCE” (Trustees of Tufts College, priority 2018, published 2022)
Entries after “also recorded” stand apart in the source; their conditions may differ.

Tests used:
DrAMPCs [1] = test: Cell elongation and differentiation after hormone treatment (image analysis, immunostaining); assay type: cell-based, Drosophila melanogaster
Experimental: (§1) Drosophila melanogaster adult muscle progenitor-like cells (DrAMPCs) were acquired from Kerafast (Boston, Mass.) (#EF4006). The cell line was originally immortalized by the Persimmon Research Group at Harvard University, and was derived from primary embryo cultures in which Gal4 drives Ras^V12 and GFP expression. DrAMPCs were cultured in insect growth media composed of Schneider's Insect Medium from Sigma-Aldrich (St. Louis, Mo.) (#S0146) supplemented with 10% heat inactivated fetal bovine serum from ThermoFisher (Waltham, Mass.) (#16140) and 1% penicillin/streptomycin (ThermoFisher, #15140122). For serum-free growth media experiments, media consisted of Ex-Cell 405 Serum-Free Medium (Sigma-Aldrich, #14405C) and 1% penicillin/streptomycin. For static culture, DrAMPCs were cultured in either plasma-treated flasks (ThermoFisher, #156499) or ultra-low attachment flasks (Corning, N.Y.) (#CLS3814) and incubated at 19° C. in a temperature-controlled incubator from VWR (Radnor, Pa.) (#89511-416). For suspension culture, DrAMPCs were cultured in shaker flasks (ThermoFisher, #4115-0250) on an orbital shaker set at 40 rpm at room temperature. When indicated, dextran sulfate (Sigma-Aldrich, #67578) was supplemented to serum-free media by dissolution and sterile filtration with 0.2 μm bottle top filters (ThermoFisher, #595-3320). For hormone treatment and differentiation experiments, DrAMPCs were cultured in insect growth media or serum-free media supplemented with methoprene (Sigma-Aldrich, #33375) and/or 20-hydroxyecdysone (Sigma-Aldrich, #H5142) which were dissolved in DMSO (Sigma-Aldrich, #D8418). DrAMPCs were seeded at 75,000 or 300,000 cells/cm^2 in 2D culture and 1,000,000 cells/sponge in 3D culture. For mammalian controls, C2C12 cells from ATTC (Manassas, Va.) (#CRL-1772) were cultured in growth media composed of DMEM+Glutamax (ThermoFisher, #10566) supplemented with 10% heat inactivated fetal bovine serum and 1% penicillin/streptomycin. C2C12s were seeded at 10,000 cells/cm^2.
Cell viability was determined by a Live/Dead staining kit (ThermoFisher, #L3224). At time of assay, media was gently aspirated from the cell surface and cells were rinsed with phosphate buffered saline (PBS) (ThermoFisher, #14040133). Cells were stained with 2 μM calcein AM and 4 μM EthD-1 solution for 30 minutes at room temperature in the dark and imaged with a fluorescence microscope. For immunocytochemical staining, media was gently aspirated from cells and the cell surface was rinsed with PBS. Cells were fixed with 4% paraformaldehyde from Fisher Scientific (Hampton, N.H.) (#J61899AK) for 10 minutes and rinsed with PBS. Cells were then permeabilized with 0.5% Triton X-100 and rinsed with blocking buffer consisting of phosphate buffered saline, 5% fetal bovine serum and 0.05% sodium azide. Cells were incubated in blocking buffer for 15 minutes before addition of primary antibody, then incubated at 4° C. overnight. Cells were rinsed and incubated with fresh blocking buffer for 15 minutes before addition of secondary antibody, then incubated in the dark on ice for 1 hour. Again, cells were rinsed and incubated with fresh blocking buffer for 15 minutes before counterstaining and mounting with DAPI mounting medium from Abcam (Cambridge, UK) (#ab104139). Detailed antibody information is available in Table 5. Fluorescence imaging was performed on a Keyence microscope (Osaka, Japan) (#BZ-X700). Confocal imaging was performed on a TCS SP8 microscope from Leica Microsystems (Wetzlar, Germany).

[2] = average adult; cited from earlier work
DrAMPCs [3] = test: CyQuant proliferation assay after hormone treatment; assay type: cell-based, Drosophila melanogaster
Experimental: as §1, with “For mammalian controls, C2C12 cells from ATTC (Manassas, Va.) (#CRL-1772) were cultured in growth media composed of DMEM+Glutamax (ThermoFisher, #10566) supplemented with 10% heat inactivated fetal bovine serum and 1% penicillin/streptomycin. C2C12s were seeded at 10,000 cells/cm^2.” left out
Cell adhesion to tissue culture plastic and chitosan films was quantified via a MTS Assay from Promega (Madison, Wis.) (#G3582) by measuring absorbance after 2.5-hour incubation with the MTS reagent. Cell proliferation and viability were measured by fluorescence, Live/Dead kit (ThermoFisher, #L3224) stained image analysis or CyQuant proliferation assays (ThermoFisher, #C7026). For fluorescence measurements, GFP-expressing DrAMPCs were imaged on a fluorescence microscope over the course of a week using the automated multi-point capture feature. Fluorescence was quantified on Fiji software and normalized to the values determined at the first time-point. For Live/Dead stained image analysis, cells were stained following the kit protocols and imaged on a fluorescence microscope. The images were analyzed with Fiji to quantify the viability and total cell population over time. […] Microplate measurements were performed on a SpectraMax M2 reader from Molecular Devices (San Jose, Calif.). Cell populations were determined from a standard curve.

[4] = tested on: Manduca sexta embryonic precursor cell (Ms-EPCs); test: Ms-EPC culture and differentiation; assay type: cell-based
DrAMPCs [5] = test: Adhesion and differentiation on chitosan sponge scaffolds; assay type: cell-based, Drosophila melanogaster
Experimental: Mushroom chitosan of 100 kDa molecular weight from Chinova Bioworks (New Brunswick, Canada) was dissolved in 2% acetic acid in distilled water for 12 hours at room temperature on a stir plate. The chitosan solution was centrifuged at 16,880×g for 3 hours to remove undissolved particles and diluted in distilled water to the desired concentrations (1%, 2% and 4%). Concentrations were verified by drying small volumes at 60° C. for 2 hours and calculating dry weight/wet weight. To prepare films, the solution was cast on plastic and allowed to dry overnight. To prepare sponges, the solution was poured into PDMS molds with an aluminum sheet separating one side of the mold from a separate chamber. Liquid nitrogen was poured into the chamber opposite the chitosan solution and continually replenished until the entire solution had frozen across the temperature gradient. Samples were then lyophilized for 48 hours. Prior to sterilization and seeding, films and sponges were submerged in 1M sodium carbonate for 1 hour at room temperature and subsequently rinsed three times in distilled water for 20 minutes and soaked in distilled water overnight. For hydrated mechanical analysis, sectioned sponges were soaked in PBS prior to testing.
Sponges used for seeding were cylinders 6 mm in diameter and 1.5 mm thick. […]

DrAMPCs [6] = test: Potassium induced contraction; assay type: cell-based, Drosophila melanogaster
Experimental: Cells were differentiated for 5 days before the experiment. High K+ concentration media was produced by dissolving KCl in growth media at the indicated concentration. Cells were imaged on a Phase Contrast microscope before growth media was aspirated and replaced with 600 mM K+ media. Cells were imaged over a duration of 15 minutes.

DrAMPCs [7] = test: Surface coatings: myosin heavy chain expression and cell attachment (image fluorescence quantification); assay type: cell-based, Drosophila melanogaster; settings: cultures on coated surface
DrAMPCs [8] = test: Agitated suspension culture in shaker flasks (aggregation); assay type: cell-based, Drosophila melanogaster; settings: 100 μg/mL dextran sulfate in EC405, shaker flasks
Experimental: It was noted that when static culture flasks became over-confluent, the cells continued to grow in three-dimensional aggregates or in suspension. […] The cells were then transitioned from static suspension culture to agitated suspension culture with the use of shaker flasks incubated at room temperature. In agitated suspension, the cells formed aggregates (FIG. 1G). […] After expansion in suspension culture and removal of dextran sulfate, the cells transitioned back to adherent monolayers and retained a myoblast-like morphology.
Drosophila melanogaster adult muscle progenitor-like cells (DrAMPCs) were acquired from Kerafast (Boston, Mass.) (#EF4006). The cell line was originally immortalized by the Persimmon Research Group at Harvard University, and was derived from primary embryo cultures in which Gal4 drives Ras^V12 and GFP expression. DrAMPCs were cultured in insect growth media composed of Schneider's Insect Medium from Sigma-Aldrich (St. Louis, Mo.) (#S0146) supplemented with 10% heat inactivated fetal bovine serum from ThermoFisher (Waltham, Mass.) (#16140) and 1% penicillin/streptomycin (ThermoFisher, #15140122). For serum-free growth media experiments, media consisted of Ex-Cell 405 Serum-Free Medium (Sigma-Aldrich, #14405C) and 1% penicillin/streptomycin. […]

DrAMPCs [9] = test: Adhesion and growth on mushroom chitosan films (MTS assay, fluorescence microscopy); assay type: cell-based, Drosophila melanogaster; settings: 0.1% gelatin solution coating
Experimental: Cell adhesion to tissue culture plastic and chitosan films was quantified via a MTS Assay from Promega (Madison, Wis.) (#G3582) by measuring absorbance after 2.5-hour incubation with the MTS reagent. Cell proliferation and viability were measured by fluorescence, Live/Dead kit (ThermoFisher, #L3224) stained image analysis or CyQuant proliferation assays (ThermoFisher, #C7026). For fluorescence measurements, GFP-expressing DrAMPCs were imaged on a fluorescence microscope over the course of a week using the automated multi-point capture feature. Fluorescence was quantified on Fiji software and normalized to the values determined at the first time-point. For Live/Dead stained image analysis, cells were stained following the kit protocols and imaged on a fluorescence microscope. The images were analyzed with Fiji to quantify the viability and total cell population over time. For CyQuant proliferation assays, cells were plated in 96-well plates for each time-point. At each time-point, media was blotted from the plates and plates were stored at −80° C. After all time-points were collected, plates were thawed to room temperature and stained with CyQuant working solution for 5 minutes. Microplate measurements were performed on a SpectraMax M2 reader from Molecular Devices (San Jose, Calif.). Cell populations were determined from a standard curve. […]

[10] = both serum-supplemented and serum-free cultures

For `COC(C)(C)CCC[C@H](C)C/C=C/C(C)=C/C(=O)OC(C)C` (racemic) [methoprene], the “average cell length less than control cells” value (DrAMPCs [1]; 500 ng/mL) is given as 8 μm, the “cell elongation (preliminary sign of differentiation)” value (DrAMPCs [1]; JH treatment) is given as “inhibited cell elongation” and the recommended exposure [2] is given as 0.3750 mg/day. The “comparison of treatment levels on proliferation” value (DrAMPCs [3]; 500 ng/mL vs 1,000 ng/mL) was “the 500 ng/mL treatment level had a larger effect than the 1,000 ng/mL treatment”, the “proliferation versus control groups” value (DrAMPCs [3]; 500 or 1,000 ng/mL, day 1 and 5) was “higher proliferation than control groups” and the proliferation (DrAMPCs [3]; [10]) was “increased proliferation”.

In the case of `CC(C)(O)CC[C@@H](O)[C@](C)(O)[C@H]1CC[C@@]2(O)C3=CC(=O)[C@@H]4C[C@@H](O)[C@@H](O)C[C@]4(C)[C@H]3CC[C@]12C` [20-hydroxyecdysone], the “differentiation of primary Ms-EPC cells” value ([4]; differentiated with 20-hydroxyecdysone) is reported as “multinucleated, striated and express myosin heavy chain”, the “concentration able to trigger cell elongation” value (DrAMPCs [1]; as low as) is reported as 40 ng/mL and the differentiation (DrAMPCs [1]; [10]) is reported as “triggered differentiation”. The “differentiation of EC405 adapted cells” value (DrAMPCs [1]; small fraction of cells, 1 μg/mL 20-HE for 5 days) was “differentiate and form long, multinucleated myotubes that express myosin heavy chain”, the “growth rates versus control groups” value (DrAMPCs [3]; 0, 500 or 1000 ng/mL 20-HE) was “did not significantly differ from control groups” and the “generation of myosin heavy chain-expressing cells” value (DrAMPCs [5]; on plastic and chitosan scaffolds) was “myosin heavy chain-expressing cells could be generated (albeit at low efficiency)”. For the same compound, the “fraction of cells on chitosan scaffolds differentiated” value (DrAMPCs [5]; treated with 20-hydroxyecdysone) was under 1%.

In the case of `[Cl-].[K+]` [K^+, KCl], the “cell viability after potassium treatment” value (DrAMPCs [6]) is reported as 95%, the cell contraction (DrAMPCs [6]; 300 mM K+) is reported as “did not contract” and the cell contraction (DrAMPCs [6]; 600 mM K+) is reported as “did contract”. For the same compound, the “cell fractional shortening, myoblasts (elongated cells)” value (DrAMPCs [6]; 600 mM K+, image analysis, n=12) was 31.6%±14.8% and the “cell fractional shortening, spherical proliferative precursor cells” value (DrAMPCs [6]; 600 mM K+, image analysis, n=14) was 1.6%±16.2%.

In the case of Concanavalin A, the cell attachment (DrAMPCs [7]) is reported as “do not increase cell attachment” and the “expression of myosin heavy chain in differentiated DrAMPCs” value (DrAMPCs [7]) is reported as “may increase”.

For dextran sulfate, the “cell aggregation in agitated suspension” value (DrAMPCs [8]) was “sufficient to reduce aggregation and promote a single cell suspension” and the “cell aggregation in agitated suspension” value (DrAMPCs [8]; listed as Dextran sulfate) was “sufficient to reduce cell aggregation”.

For gelatin, the “cell adhesion and growth on gelatin-coated chitosan films” value (DrAMPCs [9]) was “did not increase cell adhesion to chitosan films; also recorded: grow in aggregates and were detached from the center of the well during the PBS rinse” and the “cell adhesion to gelatin coated tissue culture plastic” value (DrAMPCs [9]) was “improve cell adhesion”.

With laminin the cell attachment (DrAMPCs [7]) was “do not increase cell attachment” and the “expression of myosin heavy chain in differentiated DrAMPCs” value (DrAMPCs [7]) was “may increase”.

In the case of poly-lysine, the “cell morphology of Ms-EPCs” value ([4]; poly-lysine coated plastic) is reported as “more cell elongation, perhaps differentiation”.
